Measurements taken from patent US8211479B2, “Combinations of vasoactive substances with estrogens and their use in the treatment of female sexual dysfunctions” (Indena S.p.A., priority 2007, dated 2012).

Tests used:
PDE5A1 = PDE5A1 (Homo sapiens, UniProt O76074)
[1] = system: arterioles and precapillary arteries; conditions: topically administered; increasing blood flow and tissue perfusion; cited from earlier work

inhibition of phosphodiesterase cGMP (in words) (PDE5A1)	Compound	vasokinetic action on arterioles and precapillary arteries (in words) [1]
powerful inhibitors	COc1ccc(-c2oc3c(CC=C(C)C)c(OCCO)cc(O)c3c(=O)c2OCCO)cc1 [Compound 1, 3,7-O-di-(2-hydroxyethyl)icaritin]	
powerful inhibitors	COc1ccc(-c2oc3c(CC=C(C)C)c(OCCO)cc(O)c3c(=O)c2O[C@@H]2O[C@@H](C)[C@H](O)[C@@H](O)[C@H]2O)cc1 [Compound 2, 7-O-hydroxyethyl-icariside II]	
	Visnadin	marked vasokinetic action
